This passage reports inhibition results from patent publication US5482967A, “Condensed heterocyclic compounds, their production and use” (Takeda Chemical Industries, Ltd., priority 1992, dated 1996).

This test concerns the target T1, acyl-CoA:cholesterol acyl transferase (ACAT) (Rattus norvegicus, UniProt Q7TQM4).
T1 construct: small intestine mucosal microsome fraction of a 6-week-old male Sprague-Dawley rat; from tissue; host or cells: rat small intestine mucosa, microsome fraction
T1 sequence (Q7TQM4 1-524): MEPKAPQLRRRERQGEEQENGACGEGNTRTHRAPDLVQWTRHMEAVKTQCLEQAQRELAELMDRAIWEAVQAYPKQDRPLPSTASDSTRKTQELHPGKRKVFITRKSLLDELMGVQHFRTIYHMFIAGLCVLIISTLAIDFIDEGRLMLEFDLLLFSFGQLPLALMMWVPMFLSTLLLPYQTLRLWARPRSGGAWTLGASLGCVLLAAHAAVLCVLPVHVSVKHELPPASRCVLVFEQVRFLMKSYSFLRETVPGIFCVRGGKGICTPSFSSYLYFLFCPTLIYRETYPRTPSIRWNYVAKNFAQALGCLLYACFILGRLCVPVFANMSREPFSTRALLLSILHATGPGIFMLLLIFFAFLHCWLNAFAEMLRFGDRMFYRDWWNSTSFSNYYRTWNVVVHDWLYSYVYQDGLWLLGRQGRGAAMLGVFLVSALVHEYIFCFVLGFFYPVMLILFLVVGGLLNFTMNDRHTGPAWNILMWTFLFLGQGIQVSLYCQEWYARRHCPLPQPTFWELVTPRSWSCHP
The test is described as follows: Inhibitory action against acyl-CoA:cholesterol acyl transferase (ACAT), formation of labeled cholesterol ester, small intestine mucosal microsome fraction. The class given is biochemical, male Sprague-Dawley rat. Particulars: 10^-6 M; read-out: ACAT Inhibitory Rate (%). As to the method: An ACAT enzyme preparation was prepared from a small intestine mucosal microsome fraction of a 6-week-old male Sprague-Dawley rat, previously fasted for 20 hours, in accordance with the method described by Heider et al. in the Journal of Lipid Research, Vol. 24, page 1127 (1982).
ACAT activity was determined by measuring the amount of labeled cholesterol ester produced from [1-^14 C]-oleoyl-CoA and endogenous cholesterol, in accordance with the method of Helgerud et al. [Journal of Lipid Research, Vol. 22, page 271 (1981)].
In the case of `COc1cc(OC)c(NC(=O)C[C@@H]2C(=O)N(C)c3ccc(Cl)cc3[C@H]2c2ccccc2)c(OC)c1` (relative stereo) [Example 25, 3,4-trans-6-Chloro-1,2,3,4-tetrahydro-1-methyl-2-oxo-4-phenyl-N-(2,4,6-trimethoxyphenyl)-3-quinolineacetamide], the inhibition at 1 µM worked out at 96.9%. With `COc1cccc(OC)c1NC(=O)Cc1oc(=O)c2ccc(Cl)cc2c1-c1ccccc1` [Example 76, 6-Chloro-N-(2,6-dimethoxyphenyl)-1-oxo-4-phenyl-1H-2-benzopyran-3-acetamide], the inhibition at 1 µM was found to be 99.3%. Take `Cc1cc(C)c(NC(=O)C[C@@H]2C(=O)N(C)c3ccc(Cl)cc3[C@H]2c2ccccc2)c(C)c1` (relative stereo) [Example 31, 3,4-trans-6-Chloro-1,2,3,4-tetrahydro-1-methyl-2-oxo-4-phenyl-N-(2,4,6-trimethylphenyl)-3-quinolineacetamide]: the inhibition at 1 µM was 97.5%. On to `Cc1ccc2oc(=O)c(CC(=O)Nc3ccc(F)cc3F)c(-c3ccccc3)c2c1` [Example 55, N-(2,4-Difluorophenyl)-6-methyl-2-oxo-4-phenyl-2H-1-benzopyran-3-acetamide], for which the inhibition at 1 µM came to 97.9%. On to `CC(C)c1cccc(C(C)C)c1NC(=O)C[C@H]1C(=O)N(C)c2ccc(Cl)cc2[C@H]1c1ccccc1` (relative stereo) [Example 32, 3,4-cis-N-[2,6-Bis(1-methylethyl)phenyl]-6-chloro-1,2,3,4-tetrahydro-1-methyl-2-oxo-4-phenyl-3-quinolineacetamide], for which the inhibition at 1 µM was found to be 96%. Consider `CCOc1cccc(OCC)c1NC(=O)Cc1c(-c2ccccc2OC)c2cc(Cl)ccc2oc1=O` [Example 93, 6-Chloro-N-(2,6-diethoxyphenyl)-4-(2-methoxyphenyl)-2-oxo-2H-1-benzopyran-3-acetamide], for which the inhibition at 1 µM amounted to 99%. With `CC(C)c1cccc(C(C)C)c1NC(=O)C[C@H]1CN(C)c2ccc(Cl)cc2[C@H]1c1ccccc1` (relative stereo) [Example 36, 3,4-cis-N-[2,6-Bis(1-methylethyl)phenyl]-6-chloro-1,2,3,4-tetrahydro-1-methyl-4-phenyl-3-quinolineacetamide] the figure was 98.8%. With `COc1ccccc1-c1c(CC(=O)Nc2c(C(C)C)cccc2C(C)C)oc(=O)c2ccccc12` [Example 56, N-[2,6-Bis(1-methylethyl)phenyl]-4-(2-methoxyphenyl)-1-oxo-1H-2-benzopyran-3-acetamide] the figure was 98.1%; with `COc1cccc(OC)c1NC(=O)Cc1c(-c2ccccc2)c2cc(Cl)ccc2oc1=O` [Example 79, 6-Chloro-N-(2,6-dimethoxyphenyl)-2-oxo-4-phenyl-2H-1-benzopyran-3-acetamide], 99.1%; with `CCOc1cccc(OCC)c1NC(=O)Cc1c(-c2ccccc2C)c2cc(Cl)ccc2oc1=O` [Example 88, 6-Chloro-N-(2,6-diethoxyphenyl)-4-(2-methylphenyl)-2-oxo-2H-1-benzopyran-3-acetamide], 99.7%. For `Cc1cc2c(cc1C)N(C)C(=O)[C@@H](CC(=O)Nc1c(C(C)C)cccc1C(C)C)[C@@H]2c1ccccc1Cl` (relative stereo) [Example 20, 3,4-trans-N-[2,6-Bis(1-methylethyl)phenyl]-4-(2-chlorophenyl)-1,2,3,4-tetrahydro-1,6,7-trimethyl-2-oxo-3-quinolineacetamide] the value was 97.8%; for `CC(C)c1cccc(C(C)C)c1NC(=O)Cc1c(-c2ccccc2)c2cc(Cl)ccc2oc1=O` [Example 50, N-[2,6-Bis(1-methylethyl)phenyl]-6-chloro-2-oxo-4-phenyl-2H-1-benzopyran-3-acetamide], 95.7%. On to `Cc1cc2c(cc1C)N(C)C[C@@H](C(=O)Nc1c(C(C)C)cccc1C(C)C)[C@@H]2c1ccccc1Cl` (relative stereo) [Example 15, 3,4-trans-N-[2,6-Bis(1-methylethyl)phenyl]-4-(2-chlorophenyl)-1,2,3,4-tetrahydro-1,6,7-trimethyl-3-quinolinecarboxamide], for which the inhibition at 1 µM amounted to 90.2%.

On to `COc1cc(OC)c(NC(=O)Cc2c(-c3ccccc3)c3cc(Cl)ccc3oc2=O)c(OC)c1` [Example 51, 6-Chloro-2-oxo-4-phenyl-N-(2,4,6-trimethoxyphenyl)-2H-1-benzopyran-3-acetamide], for which the inhibition at 1 µM is 98.1%.

For `COc1ccccc1-c1c(CC(=O)Nc2c(C(C)C)cccc2C(C)C)c(=O)oc2ccc(Cl)cc12` [Example 92, N-[2,6-Bis(1-methylethyl)phenyl]-6-chloro-4-(2-methoxyphenyl)-2-oxo-2H-1-benzopyran-3-acetamide], the inhibition at 1 µM is 98.2%. With `Cc1ccc2c(c1)[C@@H](c1ccccc1)[C@H](CC(=O)Nc1c(C(C)C)cccc1C(C)C)C(=O)N2C` (relative stereo) [Example 60, 3,4-trans-N-[2,6-Bis(1-methylethyl)phenyl]-1,2,3,4-tetrahydro-1,6-dimethyl-2-oxo-4-phenyl-3-quinolineacetamide], the inhibition at 1 µM turned out to be 99.9%. Take `Cc1cccc(C(C)C)c1NC(=O)C[C@H]1C(=O)N(C)c2ccc(Cl)cc2[C@H]1c1ccccc1` (relative stereo) [Example 22, 3,4-cis-6-Chloro-1,2,3,4-tetrahydro-1-methyl-N-[2-methyl-6-(1-methylethyl)phenyl]-2-oxo-4-phenyl-3-quinolineacetamide]: the inhibition at 1 µM came out at 97.9%. Consider `CC(C)c1cccc(C(C)C)c1NC(=O)Cc1c(-c2ccccc2)c2cc(Cl)ccc2n(C)c1=O` [Example 45, N-[2,6-Bis(1-methylethyl)phenyl]-6-chloro-1,2-dihydro-1-methyl-2-oxo-4-phenyl-3-quinolineacetamide], for which the inhibition at 1 µM worked out at 99.5%. For `CC(C)c1cccc(C(C)C)c1NC(=O)CC1C(=O)N(C)c2ccc(Cl)cc2C1(C)c1ccccc1` (stereo not shown) [Example 19, N-[2,6-Bis-(1-methylethyl)phenyl]-6-chloro-1,2,3,4-tetrahydro-1,4-dimethyl-2-oxo-4-phenyl-3-quinolineacetamide] the value was 99.1%; for `CCOc1cccc(OCC)c1NC(=O)Cc1c(-c2ccccc2C(F)(F)F)c2cc(Cl)ccc2oc1=O` [Example 95, 6-Chloro-N-(2,6-diethoxyphenyl)-2-oxo-4-(2-trifluoromethylphenyl)-2H-1-benzopyran-3-acetamide], 99.1%. Take `COc1cc(OC)c(NC(=O)Cc2c(-c3ccccc3)c3cc(C)ccc3oc2=O)c(OC)c1` [Example 54, 6-Methyl-2-oxo-4-phenyl-N-(2,4,6-trimethoxyphenyl)-2H-1-benzopyran-3-acetamide]: the inhibition at 1 µM stood at 98.4%. For `COc1cc(OC)c(NC(=O)CC2C(=O)N(C)c3ccc(Cl)cc3N2c2ccccc2)c(OC)c1` (stereo not shown) [Example 43, 6-Chloro-1,2,3,4-tetrahydro-1-methyl-2-oxo-4-phenyl-N-(2,4,6-trimethoxyphenyl)-3-quinoxalineacetamide] the value was 98.2%; for `CC(C)c1ccc2c(c1)[C@@H](c1ccc(F)cc1)[C@H](C(=O)Nc1c(C(C)C)cccc1C(C)C)C(=O)O2` (relative stereo) [Example 13, 3,4-trans-N-[2,6-Bis(1-methylethyl)phenyl]-4-(4-fluorophenyl)-3,4-dihydro-6-(1-methylethyl)-2-oxo-2H-1-benzopyran-3-carboxamide], 93.8%. For `Cc1cc2c(-c3ccccc3)c(CC(=O)Nc3c(C(C)C)cccc3C(C)C)n(C)c(=O)c2cc1C` [Example 47, N-[2,6-Bis(1-methylethyl)phenyl]-1,2-dihydro-2,6,7-trimethyl-1-oxo-4-phenyl-3-isoquinolineacetamide], the inhibition at 1 µM came out at 90.3%. With `O=C(Cc1oc(=O)c2ccc(Cl)cc2c1-c1ccccc1)Nc1ccc(F)cc1F` [Example 49, 6-Chloro-N-(2,4-difluorophenyl)-1-oxo-4-phenyl-1H-2-benzopyran-3-acetamide] the figure was 92.8%.

In the case of `O=C(Cc1c(-c2ccccc2)c2cc(Cl)ccc2oc1=O)Nc1ccc(F)cc1F` [Example 52, 6-Chloro-N-(2,4-difluorophenyl)-2-oxo-4-phenyl-2H-1-benzopyran-3-acetamide], the inhibition at 1 µM was found to be 90.4%.

Regarding `Cc1cc(C)c(NC(=O)Cc2c(-c3ccccc3C)c3cc(Cl)ccc3oc2=O)c(C)c1` [Example 87, 6-Chloro-4-(2-methylphenyl)-2-oxo-N-(2,4,6-trimethylphenyl)-2H-1-benzopyran-3-acetamide], the inhibition at 1 µM was 99.3%. As to `Cc1cccc(C(C)C)c1NC(=O)C[C@@H]1C(=O)N(C)c2ccc(Cl)cc2[C@H]1c1ccccc1` (relative stereo) [Example 23, 3,4-trans-6-Chloro-1-methyl-N-[2-methyl-6-(1-methylethyl)phenyl]-2-oxo-4-phenyl-1,2,3,4-tetrahydro-3-quinolineacetamide], the inhibition at 1 µM was 99.4%.
